Reference: US10385108B2, “Peptide analogs of alpha-melanocyte stimulating hormone” (Genzyme Corporation, priority 2008, dated 2019)

Columns and labels:
[1] = Serum levels after a single dose in mice; assay type: in vivo
[2] = system: B16-F1 murine melanoma cells; assay: Intracellular cAMP in B16-F1 melanoma cells; assay type: cell-based
Protocol: B16-F1 (melanoma cell line) cells from American Type Culture Collection (Manassas, Va.) were seeded into flat bottom 96 well plates at 5×10^4/well and cultured overnight in DMEM (Cambrex, Walkersville, Md.) supplemented with 2 mM glutamine, antibiotics (100 U/ml penicillin and 100 […]) and 10% heat-inactivated fetal bovine serum (Invitrogen, Grand Island, N.Y.). […] Cells were lysed and intracellular cAMP levels were measured by an enzyme immunoassay kit (Amersham Biosciences, Piscataway, N.J.). Forskolin (Sigma, St. Louis, Mo.) at 100 μM served as positive controls.
cAMP levels in B16-F1 melanoma cells after treatment with native α-MSH, RI α-MSH, or a scrambled control peptide were examined. The […] melanoma cell line expresses a high number of MCR1 receptors (3000-4000 receptors/cell) compared with macrophages cell lines which express only 100-200 receptors/cell. Therefore we selected to examine the effect of the RI α-MSH treatment on the melanoma cell line. Murine melanoma B16-F1 cells were treated with native α-MSH, RI α-MSH, or control scrambled peptide at concentrations 1 pg/ml-1 μg/ml. After 30 min, cells were lysed and intracellular cAMP was measured by an enzyme immunoassay. […] However, a higher concentration of RI α-MSH (100 ng/ml) was necessary to increase cAMP compared with native α-MSH which increased cAMP at a 10 pg/ml concentration. This difference in concentration of peptide necessary to increase cAMP levels may be the result of the binding affinity to the MCR1 receptor.
Murine melanoma B16-F1 cells were treated with native α-MSH, RI α-MSH, scrambled peptide control, KPV, or alanine substituted peptides of RI α-MSH at 1 μg/ml (FIG. 7B). […] Peptides designated 810, 811, and 812 have alanine substitutions in the central core tetrapeptide sequence (D-Trp D-Arg D-Phe D-His region; AA 5-8) (variant disclosed in SEQ ID NO:2) proposed to be involved in native α-MSH binding to the melanocortin receptor and its biological activity. […] The residues in the core tetrapeptide (wrfh) (variant disclosed in SEQ ID NO:2) and to a lesser extent, the methionine 4 of RI-MSH are critical for binding to MC1R.
B16-F1 murine melanoma cells were cultured into 96 well plates 5×10^4 cells/well overnight in media with L-glutamine and pen/strep and FBS. Media was removed and new media with IBMX was added to the cells for 1 hr. Cells were then treated with RI α-MSH, or RI α-MSH peptide analogs (890, 891, 892, 893, 894 or 895). Cells were lysed after 30 min using a cAMP assay kit and supernatant were used in the assay. Forskolin at 10 μM served as positive controls.
Intracellular cAMP was measured using a cAMP competition Assay Kit (Amersham Biosciences). All cell lysate samples were diluted 1:100 for analysis.
Murine melanoma B16-F1 cells were treated with RI α-MSH, or RI α-MSH analogs (869, 872, 880, 878, 886 and 890-895) at a concentration range of 10^−4-10^−11 M. cAMP levels from cells treated with RI α-MSH, or RI α-MSH analogs. […] See FIG. 22 for graphical data and Table 2 for EC50 data.

C57BL/6 mice = assay: MOG35-55 primed mice treated in the priming phase: recall response, cytokines, macrophage markers; assay type: in vivo
Protocol: C57BL/6 mouse splenocytes and lymph node cells were cultured in 96 well plates 5×10^5 cells/well. MOG35-55 or OVA 257-264 peptide was added to wells at a concentration of 25 μg/ml. Supernatant was collected at 48 hrs after MOG peptide stimulation. After 3 days in culture cells were pulsed with [3H] thymidine at 1 μCi/well for 8 hrs. Thymidine incorporation was measured by cpm.
Total RNA was extracted from tissues with TRIZOL® (Invitrogen, Carlsbad, Calif.). 1 μg of total RNA was reverse transcribed and used in quantitative PCR by using SYBR® green incorporation with reagents from Applied Biosystems (Foster City, Calif.) on an ABI 7900. A cDNA standard was run in each PCR for cytokine targets and message concentrations were normalized to mouse β-actin. […] The sequences for mouse IL-10 primers were forward: […] (SEQ ID NO:29) and reverse: […] (SEQ ID NO:30) (2). The sequences for mouse β-actin primers were: forward […] (SEQ ID NO:31) and reverse […] (SEQ ID NO:32) (3).
Flow cytometric analysis of inflammatory cytokine profiles of mouse serum or cell supernatant were measured using the Cytometric Bead Array Kit (CBA) made by BD Biosciences (San Jose, Calif.). Samples were processed according to the manufacturer's protocol.
On Day 9, spleen and draining lymph nodes were harvested and analyzed for recall responses to MOG35-55 peptide in vitro by [3H] thymidine incorporation.
Cytokine levels were evaluated through a cytometric bead array by flow cytometry.
Spleens from individual mice were harvested on Day 9 and mRNA cytokine expression was quantitated using real time PCR. […] Naïve mice that were not immunized with MOG peptide were used to quantitate baseline mRNA levels of TNF-α and IL-10.
Blood serum samples were also collected on day 9 of the study and evaluated for cytokine levels: TNF-α, MCP-1, IL-12, IL-10, and IL-6 (FIGS. 13C and 13D).

[3] = 100 μg i.p. days 2-8, harvested day 9

serum half-life compared (in words) ([1]; mouse, in vivo, iv): longer serum half-life than native α-MSH
EC50 ([2]; B16-F1 cells, 10^-4-10^-11 M, 30 min, IBMX): 9.7 µM
SMILES: CSCC[C@@H](NC(=O)[C@@H](CCC(=O)O)NC(=O)[C@@H](Cc1c[nH]cn1)NC(=O)[C@@H](Cc1ccccc1)NC(=O)[C@@H](CCCNC(=N)N)NC(=O)[C@@H](Cc1c[nH]c2ccccc12)NC(=O)CNC(=O)[C@@H](CCCCN)NC(=O)[C@H]1CCCN1C(=O)[C@H](NC(C)=O)C(C)C)C(=O)N[C@H](CO)C(=O)N[C@H](Cc1ccc(O)cc1)C(=O)N[C@H](CO)C(N)=O [RI-MSH, vpkGwrfhemsys]
serum levels after a single dose (in words) ([1]; single dose of 100 μg, mice, n=5): measurable serum levels of RI-α-MSH after 24 hrs
cAMP levels, dose response (in words) ([2]; 1 pg/ml-1 μg/ml, 30 min, vs untreated or scrambled peptide): significantly increased cAMP levels in a dose dependent manner
concentration necessary to increase cAMP ([2]; 30 min): 100 ng/mL
cAMP levels (in words) ([2]; peptide at 1 μg/ml): significantly elevated
proliferative recall response of spleen cells to MOG35-55 (in words) (C57BL/6 mice; [3]): slight reduction in recall responses
recall response of lymph node cells to MOG peptide (in words) (C57BL/6 mice; [3]): did not show a significant difference
expression of CD86, CD40, CD14 on splenic CD11b+ or F4/80+ macrophages (in words) (C57BL/6 mice; 7 days of daily dosing, 100 μg/mouse): no difference in the expression levels
TNF-α, IFNγ, IL-6 and MCP-1 levels in spleen cell supernatant vs PBS (in words) (C57BL/6 mice; cells stimulated with MOG35-55 in vitro): decrease
serum IL-6 vs PBS (in words) (C57BL/6 mice; day 9): decrease
serum IL-10 (in words) (C57BL/6 mice; day 9): no difference
serum MCP-1 vs PBS (in words) (C57BL/6 mice; day 9): significantly decreased
serum TNF-α and IL-12 vs PBS (in words) (C57BL/6 mice; day 9): decrease
IL-10 and TNF-α mRNA in spleen vs PBS (in words) (C57BL/6 mice; priming phase, treated days 2-8, day 9): decreased levels
